In patent publication US20250026916A1, “ULTRAVIOLET ABSORBER AND USE THEREOF” (RIANLON (ZHONGWEI) NEW MATERIAL CO., LTD., priority 2023, published 2025):

How the values were obtained:
[1] = Absorption spectrum in chloroform (UV-visible spectrophotometer); assay type: physicochemical; conditions: chloroform solution 10 mg/L; for Peak area ratio in waveband 280-450 nm: total
Procedure: The absorption spectra were measured using an ultraviolet-visible spectrophotometer, and the instrument model is (UV-2600, Shimadzu corporation, Japan). The absorption spectra were compared in Table 1 below.

[2] = Color test, Gardner color scale of DMF solution; assay type: physicochemical; conditions: 2 g dissolved in 18 g DMF
Procedure: The completely dissolved solution was transferred to a cuvette, and the Gardner color scale value transmitted by the solvent was measured. The instrument was a Ci7600 bench spectrophotometer (X-rite, the United States).

[3] = Solubility/compatibility test in typical oligomer resins; conditions: mass soluble in 100 g of oligomer, 20° C.
Procedure: Test method: The mass of soluble ultraviolet absorber in 100 g of oligomer when the ambient temperature is 20° C.

[4] = general description of the commercial product; cited from earlier work

Which Absorption cut-off wavelength [1] does the source give for `CCCCCCCCCCCCSc1ccc2nn(-c3cc(C)cc(C(C)(C)C)c3O)nc2c1` [RSUV-1] here?
The Absorption cut-off wavelength was 416 nm.

And the “Maximum absorption peak in red shift direction” value [1]?
The value was 369 nm.

And the “Peak area ratio in waveband 280-360 nm” value [1]?
The value was 58.1%.

And the “Peak area ratio in waveband 361-380 nm” value [1]?
Its value is 26.5%.

And the “Peak area ratio in waveband 381-400 nm” value [1]?
The value was 13.6%.

And the “Peak area ratio in waveband 401-450 nm” value [1]?
The value was 1.8%.

And the “Peak area ratio in waveband 280-450 nm” value [1]?
Its value is 100.0%.

And the Gardner color scale [2]?
The Gardner color scale was 3.0.

And the “Solubility in cyclohexanedimethylene diisocyanate (H6XDI)” value [3]?
The value was 4.2 g.

What about the “Solubility in hexamethylene diisocyanate (HDI) trimer” value [3] of the same molecule?
The value was 4.6 g.

What about the “Solubility in tripropylene glycol diacrylate” value [3] of the same molecule?
The value was 3.9 g.

Which Absorption cut-off wavelength [1] does the source give for `Cc1cc(-n2nc3ccc(Cl)cc3n2)c(O)c(C(C)(C)C)c1` [UV-326, 2′-(2′-hydroxy-3′-tert-butyl-5′-methylphenyl)-5-chlorobenzotriazole, reference compound] here?
The Absorption cut-off wavelength was 410 nm.

What does the source list for `CCCCN1C(=O)c2cc3nn(-c4cc(C(C)(C)CC(C)(C)C)cc(C(C)(C)c5ccccc5)c4O)nc3cc2C1=O` [Carboprotect, reference compound]?
Absorption cut-off wavelength [1]: 435 nm; Maximum absorption peak in red shift direction [1]: 374 nm; Peak area ratio in waveband 280-360 nm [1]: 56.2%; Peak area ratio in waveband 361-380 nm [1]: 14.6%; Peak area ratio in waveband 381-400 nm [1]: 18.5%; Peak area ratio in waveband 401-450 nm [1]: 10.7%; Peak area ratio in waveband 280-450 nm [1]: 100%; Gardner color scale [2]: 11.5; Wavelength to which absorption can be red-shifted [4]: 420 nm

For `CCCCCCCCCCCCS(=O)(=O)c1ccc2nn(-c3cc(C)cc(C(C)(C)C)c3O)nc2c1` [RSUV-2], which Absorption cut-off wavelength [1] is on record?
The Absorption cut-off wavelength was 430 nm.

And the “Maximum absorption peak in red shift direction” value [1]?
Its value is 370 nm.

What about the “Peak area ratio in waveband 280-360 nm” value [1] of the same molecule?
The value was 65.4%.

And the “Peak area ratio in waveband 361-380 nm” value [1]?
Its value is 18.1%.

And the “Peak area ratio in waveband 381-400 nm” value [1]?
Its value is 11.8%.

What about the “Peak area ratio in waveband 401-450 nm” value [1] of the same molecule?
Its value is 4.7%.

What about the “Peak area ratio in waveband 280-450 nm” value [1] of the same molecule?
The value was 100.0%.

What about the Gardner color scale [2] of the same molecule?
The Gardner color scale was 5.2.

What about the “Solubility in cyclohexanedimethylene diisocyanate (H6XDI)” value [3] of the same molecule?
The value was 3 g.

What about the “Solubility in hexamethylene diisocyanate (HDI) trimer” value [3] of the same molecule?
The value was 3.5 g.

And the “Solubility in tripropylene glycol diacrylate” value [3]?
Its value is 3.8 g.
